Test results taken from ChEMBL document CHEMBL4385634, “Melanogenic inhibitory effects of Triangularin in B16F0 melanoma cells, in vitro and molecular docking studies” (Bioorg Med Chem, 2019).

Experiments:
Tyrosinase [1] = target: T1, Tyrosinase (Agaricus bisporus, UniProt O42713); assay: Inhibition of mushroom tyrosinase diphenolase activity using L-dopa as substrate preincubated for 10 mins followed by substrate addition by UV-Visible spectrophotometric analysis
T1 sequence (O42713 whole entry): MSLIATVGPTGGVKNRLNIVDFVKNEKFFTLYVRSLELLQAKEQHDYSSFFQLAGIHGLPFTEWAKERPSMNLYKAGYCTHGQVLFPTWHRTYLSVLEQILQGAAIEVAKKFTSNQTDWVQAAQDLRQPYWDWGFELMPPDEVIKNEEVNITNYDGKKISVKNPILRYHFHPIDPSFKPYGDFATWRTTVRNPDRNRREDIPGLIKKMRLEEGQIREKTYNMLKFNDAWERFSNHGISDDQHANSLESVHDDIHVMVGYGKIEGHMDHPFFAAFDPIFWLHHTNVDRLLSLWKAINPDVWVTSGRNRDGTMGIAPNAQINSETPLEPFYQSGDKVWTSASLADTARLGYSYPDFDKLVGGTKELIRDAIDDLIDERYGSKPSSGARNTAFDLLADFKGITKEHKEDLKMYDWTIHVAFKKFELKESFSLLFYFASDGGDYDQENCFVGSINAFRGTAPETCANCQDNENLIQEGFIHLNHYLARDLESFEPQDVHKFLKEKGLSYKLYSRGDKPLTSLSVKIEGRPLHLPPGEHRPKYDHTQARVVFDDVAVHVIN

[2] = target: T2, Tyrosinase (Mus musculus) (UniProt P11344); assay: Inhibition of intracellular tyrosinase in mouse B16F0 cells at 100 uM using L-DOPA as substrate preincubated with compound followed by substrate addition and measured after 20 mins by UV-Visible spectrophotometric analysis relative to control; type: cell-based
T2 sequence (whole entry): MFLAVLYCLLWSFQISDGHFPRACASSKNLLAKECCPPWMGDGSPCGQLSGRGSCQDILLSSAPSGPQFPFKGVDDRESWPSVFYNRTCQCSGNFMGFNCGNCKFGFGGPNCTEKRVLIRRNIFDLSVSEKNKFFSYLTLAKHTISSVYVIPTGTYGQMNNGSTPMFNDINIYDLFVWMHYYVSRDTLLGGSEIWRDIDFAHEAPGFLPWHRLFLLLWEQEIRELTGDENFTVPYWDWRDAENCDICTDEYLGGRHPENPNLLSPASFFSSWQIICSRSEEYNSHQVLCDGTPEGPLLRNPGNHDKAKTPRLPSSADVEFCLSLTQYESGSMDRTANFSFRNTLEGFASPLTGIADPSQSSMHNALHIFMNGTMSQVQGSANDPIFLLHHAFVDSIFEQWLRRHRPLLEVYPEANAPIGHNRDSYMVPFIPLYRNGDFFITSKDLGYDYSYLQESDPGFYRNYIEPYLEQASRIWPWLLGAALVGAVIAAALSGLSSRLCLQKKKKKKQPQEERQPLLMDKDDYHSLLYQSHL

[3] = target: T2, Tyrosinase (Mus musculus); assay: Potency index, ratio of compound effect to KA effect for inhibition of intracellular tyrosinase in mouse B16F0 cells using L-DOPA as substrate preincubated with compound followed by substrate addition and measured after 20 mins by UV-Visible spectrophotometric analysis; type: cell-based
Tyrosinase [4] = target: T3, Tyrosinase (Mus musculus, UniProt P11344)
T3 sequence (P11344 whole entry): T2 sequence (whole entry)
Description: Inhibition of tyrosinase in mouse B16F0 cells using L-DOPA as substrate by UV-Visible spectrophotometric analysis

[5] = target: T2, Tyrosinase (Mus musculus); assay: Potency index, ratio of IC50 for KA to IC50 for test compound for inhibition of tyrosinase in mouse B16F0 cells assessed as reduction in melanin production incubated for 24 hrs by spectrophotometric analysis; type: cell-based
Tyrosinase [6] = target: T3, Tyrosinase; assay: Inhibition of tyrosinase in mouse B16F0 cells assessed as reduction in melanin production incubated for 24 hrs by spectrophotometric analysis; type: cell-based
[7] = target: T2, Tyrosinase (Mus musculus); assay: Potency index, ratio of IC50 for KA to IC50 for test compound for inhibition of tyrosinase in mouse B16F0 cells using L-DOPA as substrate by UV-Visible spectrophotometric analysis; type: cell-based
[8] = target: T2, Tyrosinase (Mus musculus); assay: Inhibition of intracellular tyrosinase in mouse B16F0 cells at 50 uM using L-DOPA as substrate preincubated with compound followed by substrate addition and measured after 20 mins by UV-Visible spectrophotometric analysis relative to control; type: cell-based
[9] = target: T2, Tyrosinase (Mus musculus); assay: Inhibition of intracellular tyrosinase in mouse B16F0 cells at 10 uM using L-DOPA as substrate preincubated with compound followed by substrate addition and measured after 20 mins by UV-Visible spectrophotometric analysis relative to control; type: cell-based
B16-F0 = assay: (§1) Cytotoxicity against mouse B16F0 cells incubated for 24 hrs by MTT assay; type: cell-based; conditions: b16-f0, 24 h
[10] = as §1; type: cell-based, B16-F0; conditions: B16F0 cells, read-out: MNCC
[11] = target: T2, Tyrosinase (Mus musculus); assay: Inhibition of intracellular tyrosinase in mouse B16F0 cells at 1 uM using L-DOPA as substrate preincubated with compound followed by substrate addition and measured after 20 mins by UV-Visible spectrophotometric analysis relative to control; type: cell-based
[12] = target: T2, Tyrosinase (Mus musculus); assay: Inhibition of intracellular tyrosinase in mouse B16F0 cells at 5 uM using L-DOPA as substrate preincubated with compound followed by substrate addition and measured after 20 mins by UV-Visible spectrophotometric analysis relative to control; type: cell-based
[13] = target: T2, Tyrosinase (Mus musculus); assay: Inhibition of intracellular tyrosinase in mouse B16F0 cells using L-DOPA as substrate preincubated with compound followed by substrate addition and measured after 20 mins by UV-Visible spectrophotometric analysis relative to control; type: cell-based
[14] = target: T4, Tyrosinase (Agaricus bisporus) (UniProt O42713); assay: Potency index, ratio of IC50 for KA to IC50 for test compound for inhibition of mushroom tyrosinase diphenolase activity using L-dopa as substrate preincubated for 10 mins followed by substrate addition by UV-Visible spectrophotometric analysis
T4 sequence (whole entry): T1 sequence (O42713 whole entry)

[15] = target: T2, Tyrosinase (Mus musculus); assay: Inhibition of intracellular tyrosinase in mouse B16F0 cells at 25 uM using L-DOPA as substrate preincubated with compound followed by substrate addition and measured after 20 mins by UV-Visible spectrophotometric analysis relative to control; type: cell-based
[16] = target: T2, Tyrosinase (Mus musculus); assay: Potency index, ratio of compound effect to KA effect for inhibition of tyrosinase in mouse B16F0 cells at 10 uM using L-DOPA as substrate; type: cell-based

- IC50 (Tyrosinase [1]): 63.1 µM
- inhibition [2]: 20.1%
- Ratio [3]: 5
- IC50 (Tyrosinase [4]): 30.1 µM
- Ratio IC50 [5]: 8
- IC50 (Tyrosinase [6]): 25 µM
- Ratio [7]: 3
- inhibition [8]: 16.2%
- inhibition [9]: 7.8%
- inhibition [11]: 3.9%
- inhibition [12]: 6.1%
- inhibition [13]: Dose-dependent effect
- Ratio IC50 [14]: 2
- inhibition [15]: 13%
- Ratio [16]: 6
SMILES: COc1cc(O)c(C(=O)/C=C/c2ccccc2)c(O)c1C
- Activity (B16-F0): Dose-dependent effect
- MNTC at 24 h [10]: 100 µM
